Here are results for one compound from US20250186436A1 (4E Therapeutics, Inc., priority 2021, published 2025).

For series [1], the target named is T1, recombinant full-length human kinase MNK1 (Homo sapiens, UniProt Q9BUB5).
T1 construct: the recombinant full-length human kinase MNK1; made in house; host or cells: insect cells
Description: MNK1 radiometric kinase activity assay. The class given is biochemical.

In series [2] the target is T2, recombinant full length human kinase MNK2 (Homo sapiens, UniProt Q9HBH9).
T2 construct: the recombinant full length human kinase MNK2; made in house; host or cells: insect cells
T2 sequence (Q9HBH9 whole entry): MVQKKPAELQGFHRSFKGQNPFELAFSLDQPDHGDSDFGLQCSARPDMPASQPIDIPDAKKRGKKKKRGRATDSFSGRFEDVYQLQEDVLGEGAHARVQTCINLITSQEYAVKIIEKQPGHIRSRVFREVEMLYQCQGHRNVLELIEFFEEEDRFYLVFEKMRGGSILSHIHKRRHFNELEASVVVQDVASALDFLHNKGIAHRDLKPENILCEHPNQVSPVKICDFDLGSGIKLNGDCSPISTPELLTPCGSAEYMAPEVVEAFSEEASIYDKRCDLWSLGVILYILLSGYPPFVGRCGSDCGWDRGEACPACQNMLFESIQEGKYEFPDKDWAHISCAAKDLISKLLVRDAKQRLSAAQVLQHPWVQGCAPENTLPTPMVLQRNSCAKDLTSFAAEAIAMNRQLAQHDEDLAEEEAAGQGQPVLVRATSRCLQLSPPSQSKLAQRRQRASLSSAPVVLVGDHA
Description: MNK2 radiometric kinase activity assay. It counts as biochemical.

For series [3], the system named is eIF4E phosphorylation at Serine 209 in HEK 293 cells. In words: eIF4E phosphorylation in HEK 293 cells (phospho-specific antibody, fluorescent plate reader).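 Note: Well-level p-eIF4E immunofluorescence normalized to DAPI signal, expressed as percent eIF4E phosphorylation, with IC50 derived from concentration-response curves.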 To be noted: Homo sapiens, HEK293; eIF4E phosphorylation at Serine 209, 2 hours exposure; read-out: HEK 293 cell. It counts as cell-based.
Series [4] deals with P-gp (human MDR1, ABCB1). In words: in vitro. The settings on record: dog, MDCK-MDR1.
The next series in a line: in vitro. To be noted: mouse, microsomes.
Series [5] has as its system P-gp (human MDR1, ABCB1). Description: MDCK-MDR1 permeability (blood-brain barrier permeability). The settings on record: dog.

T1 sequence (Q9BUB5 whole entry): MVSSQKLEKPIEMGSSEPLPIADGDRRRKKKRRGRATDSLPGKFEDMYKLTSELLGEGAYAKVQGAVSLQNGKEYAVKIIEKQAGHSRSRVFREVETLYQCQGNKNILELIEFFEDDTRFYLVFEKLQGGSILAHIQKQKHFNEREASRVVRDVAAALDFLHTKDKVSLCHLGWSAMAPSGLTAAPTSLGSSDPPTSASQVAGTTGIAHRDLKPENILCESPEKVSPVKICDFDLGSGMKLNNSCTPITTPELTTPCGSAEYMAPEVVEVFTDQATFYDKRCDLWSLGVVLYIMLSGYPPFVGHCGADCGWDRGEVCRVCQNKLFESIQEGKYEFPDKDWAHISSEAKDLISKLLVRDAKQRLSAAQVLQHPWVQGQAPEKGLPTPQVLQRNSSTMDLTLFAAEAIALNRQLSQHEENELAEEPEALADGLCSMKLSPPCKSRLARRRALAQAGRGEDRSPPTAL

Usually Papp A→B stands for how fast a substance crosses the layer from the apical side. Read a low Papp A→B as slow passage. One may read the Papp B→A as the apparent permeability from the basolateral to the apical side of a cell layer. Broadly, the half-life is the time needed for the level to fall by half in the phase considered. A high value points to slow decline. As usually defined, the efflux ratio is a quotient of directional permeabilities that is used to spot active efflux. As to `Cc1cc(Nc2cc(NC(=O)C3CC3)ncn2)c(=O)n2c1C(=O)NC21CCC2(CC1)CN2` (stereo not shown) [4ET-03-040, N-(6-((8″-methyl-1″,5″-dioxo-1″,5″-dihydro-2″H-dispiro[aziridine-2,1′-cyclohexane-4′,3″-imidazo[1,5-a]pyridin]-6″-yl)amino)pyrimidin-4-yl)cyclopropanecarboxamide], the IC50 in series [1] is 38.6 nM; in series [2], 2 nM; in series [3], 27.4 nM. This compound displayed a Papp A→B at 5 uM in the series on P-gp (human MDR1, ABCB1) [4] of 0.6 ×10⁻⁶ cm/s. The compound also yielded a Papp B→A at 5 uM with P-gp (human MDR1, ABCB1) [4] of 1.6 ×10⁻⁶ cm/s. The compound also yielded a half-life in “in vitro” of 1.28 h. Besides, the efflux ratio at 5 uM with P-gp (human MDR1, ABCB1) [5] amounted to 2.4.
